# Test results from US20190218226A1, “PRODRUGS OF ANTICANCER AGENTS INDOTECAN AND INDIMITECAN” (Purdue Research Foundation, priority 2016, published 2019).
# Like-named read-outs stand apart in the source and are kept apart here.
# Legend:
# HOP-62 = test: NCI60 antiproliferative screen, lung HOP-62; format: cell-based, human; conditions: HOP-62, 48 h, sulforhodamine B, read-out: Cytotoxicity (GI50) lung HOP-62
# Experimental: (§1) All of the indenoisoquinolines were tested for antiproliferative activity in the National Cancer Institute's 60 cell line screen (NCI60). The cells were incubated with the tested compounds at 100, 10, 1, 0.1, and 0.01 μM concentrations for 48 h before treatment with sulforhodamine B dye. Optical densities were recorded, and their ratios relative to that of the control were plotted as percentage growth against the log 10 of the tested compound concentrations. The concentration that corresponds to 50% growth inhibition (GI50) is calculated by interpolation between the points located above and below the 50% percentage growth. The mean-graph midpoint (MGM) is an estimated average of the GI50 values derived from the NCI collection of 60 human cancer cell lines, where during the MGM calculation, anticancer agents with GI50 values that are outside the testing range of 0.01-100 μM are arbitrarily assigned the values of 0.01 and 100 μM, respectively. […] Also, the GI50 values of many of the substances vs. individual human cancer cell lines are below the lowest concentration used (0.01 μM) in the standard NCI testing protocol. […] For example, the MGM cytotoxicity values of 9, 15-17, and 19 are all very close to each other, but the Top1 inhibitory activities range from +++(+) to 0.
# HCT-116 = test: NCI60 antiproliferative screen, colon HCT-116; format: cell-based, human; conditions: HCT-116, 48 h, sulforhodamine B, read-out: Cytotoxicity (GI50) Colon HCT-116
# Experimental: as §1
# SF-539 = test: NCI60 antiproliferative screen, CNS SF-539; format: cell-based, human; conditions: SF-539, 48 h, sulforhodamine B, read-out: Cytotoxicity (GI50) CNS SF-539
# Experimental: as §1
# UACC-62 = test: NCI60 antiproliferative screen, melanoma UACC-62; format: cell-based, human; conditions: UACC-62, 48 h, sulforhodamine B, read-out: Cytotoxicity (GI50) melanoma UACC-62
# Experimental: as §1
# OVCAR-3 = test: NCI60 antiproliferative screen, ovarian OVCAR-3; format: cell-based, human; conditions: OVCAR-3, 48 h, sulforhodamine B, read-out: Cytotoxicity (GI50) Ovarian OVCAR-3
# Experimental: as §1
# SN12C = test: NCI60 antiproliferative screen, renal SN12C; format: cell-based, human; conditions: 48 h, sulforhodamine B, read-out: Cytotoxicity (GI50) renal SN12C
# Experimental: as §1
# DU-145 = test: NCI60 antiproliferative screen, prostate DU-145; format: cell-based, human; conditions: DU-145, 48 h, sulforhodamine B, read-out: Cytotoxicity (GI50) prostate DU-145
# Experimental: as §1
# MCF-7 = test: NCI60 antiproliferative screen, breast MCF-7; format: cell-based, human; conditions: MCF-7, 48 h, sulforhodamine B, read-out: Cytotoxicity (GI50) breast MCF-7
# Experimental: as §1
# [1] = system: all human cancer cell lines successfully tested (NCI60); test: NCI60 mean graph midpoint for growth inhibition; format: cell-based; conditions: for mean GI50 across NCI60 cell lines (MGM): all human cancer cell lines successfully tested, ± standard error, read-out: MGM (mean graph midpoint for growth inhibition)
# Experimental: as §1
# Human recombinant Top1 = biological target: T1, Human recombinant Top1 (Homo sapiens, UniProt P11387); test: Top1-mediated DNA cleavage assay; format: biochemical; parameters: key to Top1 inhibitory activity (level): 0, no detectable activity; +, weak activity; ++, similar activity to compound 4; +++, greater activity than 4; ++++, equipotent with 1; ++(+) would be between ++ and +++; key to Top 1 Cleavage: 0, no inhibitory activity; +, between 20 and 50% activities; ++, between 50 and 75% activity; +++, between 75 and 95% activity; ++++, equipotent; conditions: for Top1 inhibitory activity (level): scored relative to compounds 1 and 4; for Top 1 Cleavage: graded relative to 1 μM camptothecin
# T1 construct: made in house
# T1 sequence (P11387 1-765): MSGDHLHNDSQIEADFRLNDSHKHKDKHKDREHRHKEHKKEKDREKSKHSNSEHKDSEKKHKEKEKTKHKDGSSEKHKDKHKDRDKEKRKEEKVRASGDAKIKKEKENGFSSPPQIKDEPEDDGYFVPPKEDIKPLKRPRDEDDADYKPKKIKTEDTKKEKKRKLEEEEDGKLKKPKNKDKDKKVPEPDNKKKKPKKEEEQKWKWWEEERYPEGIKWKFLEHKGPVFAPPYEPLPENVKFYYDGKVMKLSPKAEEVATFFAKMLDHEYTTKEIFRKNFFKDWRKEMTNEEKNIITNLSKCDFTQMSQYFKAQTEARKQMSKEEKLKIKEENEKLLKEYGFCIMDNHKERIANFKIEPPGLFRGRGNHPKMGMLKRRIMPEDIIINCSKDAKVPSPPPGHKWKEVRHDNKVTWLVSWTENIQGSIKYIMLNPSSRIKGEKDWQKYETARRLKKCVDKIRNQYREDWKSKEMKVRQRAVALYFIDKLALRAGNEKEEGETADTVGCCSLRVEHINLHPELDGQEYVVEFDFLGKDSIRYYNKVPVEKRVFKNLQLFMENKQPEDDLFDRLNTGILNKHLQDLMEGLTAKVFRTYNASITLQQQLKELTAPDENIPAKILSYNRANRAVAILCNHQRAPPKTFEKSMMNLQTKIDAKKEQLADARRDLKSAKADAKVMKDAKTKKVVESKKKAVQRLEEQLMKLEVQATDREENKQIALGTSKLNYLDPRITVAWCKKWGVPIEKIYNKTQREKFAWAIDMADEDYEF
# Experimental: All of the new indenoisoquinoline derivatives were tested in Top1-mediated DNA cleavage assays. For this purpose, a ^32P 3′-end labeled 117-bp DNA fragment was incubated with Top1 at four concentrations of a tested compound. The DNA fragments were separated on 20% PAGE denaturing gels. The Top1 inhibitory activities were assigned on the basis of the visual inspection of the number and intensities of the gel bands corresponding to Top1-mediated DNA cleavage fragments and scored relative to the Top1 inhibitory activity of compounds 1 and 4. Results are expressed in semiquantitative fashion: 0, no detectable activity; +, weak activity; ++, similar activity to compound 4; +++, greater activity than 4; ++++, equipotent with 1. Ambiguous scores (e.g., between two values) are designated with parentheses (e.g., ++(+) would be between ++ and +++). […] After conversion of the hydroxyl to a dimethylcarbamate, the observed Top1 inhibitory activity increased from ++(+) for compound 8 to +++ for compound 10. Introduction of an acetyl group at the 0-2 position yielded compound 11, which was also a Top1 poison with activity at the ++ level. Subsequently, several hydrophobic substituents were attached to the 0-2 position.
# Topoisomerase I-Mediated DNA Cleavage Reactions.
# Human recombinant Top1 was purified from baculovirus as previously described (Morrell, A., et al., J. Med. Chem. 2007, 50, 2040-2048). DNA cleavage reactions were prepared as previously reported with the exception of the DNA substrate (Strumberg, D., et al., J. Med. Chem. 1999, 42, 446-457). Briefly, a 117-bp DNA oligonucleotide (Integrated DNA Technologies) encompassing the previously identified Top1 cleavage sites in the 161-bp fragment from pBluescript SK(−) phagemid DNA was employed. This 117-bp oligonucleotide contains a single 5′-cytosine overhang, which was 3′-end-labeled by fill-in reaction with [α-^32P]dGTP in React 2 buffer (50 mM Tris-HCl, pH 8.0, […], 50 mM NaCl) with 0.5 unit of DNA polymerase I (Klenow fragment, New England BioLabs). Unincorporated [^32P]dGTP was removed using mini Quick Spin DNA columns (Roche, Indianapolis, Ind.), and the eluate containing the 3′-end-labeled DNA substrate was collected. Approximately 2 nM radiolabeled DNA substrate was incubated with recombinant Top1 in 20 μL of reaction buffer [10 mM Tris-HCl (pH 7.5), 50 mM KCl, 5 mM MgCl2, 0.1 mM EDTA, and 15 μg/mL BSA] at 25° C. for 20 min in the presence of various concentrations of compounds. The reactions were terminated by adding SDS (0.5% final concentration) followed by the addition of two volumes of loading dye (80% formamide, 10 mM sodium hydroxide, 1 mM sodium EDTA, 0.1% xylene cyanol, and 0.1% bromophenol blue). Aliquots of each reaction mixture were subjected to 20% denaturing PAGE. Gels were dried and visualized by using a phosphoimager and ImageQuant software (Molecular Dynamics). For simplicity, cleavage sites were numbered as previously described in the 161-bp fragment.
Structure (SMILES),GI50 (HOP-62; Homo sapiens) [nM],GI50 (HCT-116; Homo sapiens) [nM],GI50 (SF-539; Homo sapiens) [nM],GI50 (UACC-62; Homo sapiens) [nM],GI50 (OVCAR-3; Homo sapiens) [nM],GI50 (SN12C; Homo sapiens) [nM],GI50 (DU-145; Homo sapiens) [nM],"GI50 (MCF-7; Homo sapiens, MCF7) [nM]",mean GI50 across NCI60 cell lines (MGM) [1] [nM],Top1 inhibitory activity (level) (Human recombinant Top1),GI50 (HOP-62) [nM],GI50 (HCT-116) [nM],GI50 (SF-539) [nM],GI50 (UACC-62) [nM],GI50 (OVCAR-3) [nM],GI50 (SN12C) [nM],GI50 (DU-145) [nM],GI50 (MCF-7) [nM],cytotoxicity relative to parent compound (in words) ([1]; NCI60),Top 1 Cleavage (Human recombinant Top1),other results
COc1cc2c(=O)n(CCCN3CCOCC3)c3c(c2cc1O)C(=O)c1cc2c(cc1-3)OCO2 [Compound 8],257,279,335,282,871,195,257,144,412,++(+),,,,,,,,,,,
COc1cc2c3c(n(CCCN4CCOCC4)c(=O)c2cc1O)-c1cc2c(cc1C3=O)OCO2 [Compound 9],10,20,< 10,< 10,30,< 10,< 10,< 10,76 ± 28,,,,,,,,,,,,
"COc1cc2c(=O)n(CCCN3CCOCC3)c3c(c2cc1OC(C)=O)C(=O)c1cc2c(cc1-3)OCO2 [Compound 11, 3-Methoxy-6-(3-morpholinopropyl)-5,12-dioxo-6,12-dihydro-5H-[1,3]dioxolo[4′,5′:5,6]indeno[1,2-c]isoquinolin-2-yl Acetate]",,,,,,,,,43 ± 19,++,18,29,< 10,18,138,< 10,< 10,< 10,greater than the parent 8 by a factor of almost one order of magnitude,"++ (++, between 50 and 75% activity)",
"COC(=O)CCC(=O)Oc1cc2c3c(n(CCCN4CCOCC4)c(=O)c2cc1OC)-c1cc2c(cc1C3=O)OCO2 [Compound 12, 3-Methoxy-6-(3-morpholinopropyl)-5,12-dioxo-6,12-dihydro-5H-[1,3]dioxolo[4′,5′:5,6]indeno[1,2-c]isoquinolin-2-yl Methyl Succinate]",,,,,,,,,49 ± 8,+,< 10,14,< 10,< 10,66,< 10,< 10,< 10,greater than the parent 8 by a factor of almost one order of magnitude,"+ (+, between 20 and 50% activities)",
"COc1cc2c(=O)n(CCCN3CCOCC3)c3c(c2cc1OC(=O)c1ccccc1)C(=O)c1cc2c(cc1-3)OCO2 [Compound 13, 3-Methoxy-6-(3-morpholinopropyl)-5,12-dioxo-6,12-dihydro-5H-[1,3]dioxolo[4′,5′:5,6]indeno[1,2-c]isoquinolin-2-yl Benzoate]",,,,,,,,,1500 ± 170,+,79,850,37,96,4570,54,51,33,significantly less cytotoxic than their respective parent compounds,"+ (+, between 20 and 50% activities)",GI50's against various cell lines (range in words) ([1]; NCI60): micromolar range; Top1 inhibitory activity (in words) (Human recombinant Top1): weak Top1 poisons
"COc1cc2c3c(n(CCCN4CCOCC4)c(=O)c2cc1OC(C)=O)-c1cc2c(cc1C3=O)OCO2 [Compound 16, 2-Methoxy-6-(3-morpholinopropyl)-5,12-dioxo-6,12-dihydro-5H-[1,3]dioxolo[4′,5′:5,6]indeno[1,2-c]isoquinolin-3-yl Acetate]",,,,,,,,,95 ± 45,,< 10,< 10,< 10,< 10,269,< 10,< 10,< 10,,0,
